From patent publication US5051403A (priority 1989, dated 1991)
“And” between values parts separate entries of the source, which are not always exact repeats. Identical values can stand only once. Bridge positions count the residues as written; N and C are the ends. Square brackets hold non-standard residues; d marks the D form. Peptide text beside a SMILES is read from it. Hyp = O=C(O)[C@@H]1C[C@@H](O)CN1

What was measured:
[1] = test system: hippocampal CA1 region, gerbil global ischemia model; set-up: species or system Meriones unguiculatus (mongolian gerbil); conditions: in vivo
[2] = test system: depolarization-dependent ATP release from electric organ synaptosomes; type: biochemical, Ommata discopyge; conditions: read-out: IC50 (ATP release inhibition)
[3] = molecular target: OCT binding sites, elasmobranch electric organ synaptosomes (Diplobatis ommata, UniProt P56698); experiment: biochemical; set-up: species or system Ommata dyscopyge (marine electric ray)
Sequence of OCT binding sites, elasmobranch electric organ synaptosomes (P56698 whole entry, looked up): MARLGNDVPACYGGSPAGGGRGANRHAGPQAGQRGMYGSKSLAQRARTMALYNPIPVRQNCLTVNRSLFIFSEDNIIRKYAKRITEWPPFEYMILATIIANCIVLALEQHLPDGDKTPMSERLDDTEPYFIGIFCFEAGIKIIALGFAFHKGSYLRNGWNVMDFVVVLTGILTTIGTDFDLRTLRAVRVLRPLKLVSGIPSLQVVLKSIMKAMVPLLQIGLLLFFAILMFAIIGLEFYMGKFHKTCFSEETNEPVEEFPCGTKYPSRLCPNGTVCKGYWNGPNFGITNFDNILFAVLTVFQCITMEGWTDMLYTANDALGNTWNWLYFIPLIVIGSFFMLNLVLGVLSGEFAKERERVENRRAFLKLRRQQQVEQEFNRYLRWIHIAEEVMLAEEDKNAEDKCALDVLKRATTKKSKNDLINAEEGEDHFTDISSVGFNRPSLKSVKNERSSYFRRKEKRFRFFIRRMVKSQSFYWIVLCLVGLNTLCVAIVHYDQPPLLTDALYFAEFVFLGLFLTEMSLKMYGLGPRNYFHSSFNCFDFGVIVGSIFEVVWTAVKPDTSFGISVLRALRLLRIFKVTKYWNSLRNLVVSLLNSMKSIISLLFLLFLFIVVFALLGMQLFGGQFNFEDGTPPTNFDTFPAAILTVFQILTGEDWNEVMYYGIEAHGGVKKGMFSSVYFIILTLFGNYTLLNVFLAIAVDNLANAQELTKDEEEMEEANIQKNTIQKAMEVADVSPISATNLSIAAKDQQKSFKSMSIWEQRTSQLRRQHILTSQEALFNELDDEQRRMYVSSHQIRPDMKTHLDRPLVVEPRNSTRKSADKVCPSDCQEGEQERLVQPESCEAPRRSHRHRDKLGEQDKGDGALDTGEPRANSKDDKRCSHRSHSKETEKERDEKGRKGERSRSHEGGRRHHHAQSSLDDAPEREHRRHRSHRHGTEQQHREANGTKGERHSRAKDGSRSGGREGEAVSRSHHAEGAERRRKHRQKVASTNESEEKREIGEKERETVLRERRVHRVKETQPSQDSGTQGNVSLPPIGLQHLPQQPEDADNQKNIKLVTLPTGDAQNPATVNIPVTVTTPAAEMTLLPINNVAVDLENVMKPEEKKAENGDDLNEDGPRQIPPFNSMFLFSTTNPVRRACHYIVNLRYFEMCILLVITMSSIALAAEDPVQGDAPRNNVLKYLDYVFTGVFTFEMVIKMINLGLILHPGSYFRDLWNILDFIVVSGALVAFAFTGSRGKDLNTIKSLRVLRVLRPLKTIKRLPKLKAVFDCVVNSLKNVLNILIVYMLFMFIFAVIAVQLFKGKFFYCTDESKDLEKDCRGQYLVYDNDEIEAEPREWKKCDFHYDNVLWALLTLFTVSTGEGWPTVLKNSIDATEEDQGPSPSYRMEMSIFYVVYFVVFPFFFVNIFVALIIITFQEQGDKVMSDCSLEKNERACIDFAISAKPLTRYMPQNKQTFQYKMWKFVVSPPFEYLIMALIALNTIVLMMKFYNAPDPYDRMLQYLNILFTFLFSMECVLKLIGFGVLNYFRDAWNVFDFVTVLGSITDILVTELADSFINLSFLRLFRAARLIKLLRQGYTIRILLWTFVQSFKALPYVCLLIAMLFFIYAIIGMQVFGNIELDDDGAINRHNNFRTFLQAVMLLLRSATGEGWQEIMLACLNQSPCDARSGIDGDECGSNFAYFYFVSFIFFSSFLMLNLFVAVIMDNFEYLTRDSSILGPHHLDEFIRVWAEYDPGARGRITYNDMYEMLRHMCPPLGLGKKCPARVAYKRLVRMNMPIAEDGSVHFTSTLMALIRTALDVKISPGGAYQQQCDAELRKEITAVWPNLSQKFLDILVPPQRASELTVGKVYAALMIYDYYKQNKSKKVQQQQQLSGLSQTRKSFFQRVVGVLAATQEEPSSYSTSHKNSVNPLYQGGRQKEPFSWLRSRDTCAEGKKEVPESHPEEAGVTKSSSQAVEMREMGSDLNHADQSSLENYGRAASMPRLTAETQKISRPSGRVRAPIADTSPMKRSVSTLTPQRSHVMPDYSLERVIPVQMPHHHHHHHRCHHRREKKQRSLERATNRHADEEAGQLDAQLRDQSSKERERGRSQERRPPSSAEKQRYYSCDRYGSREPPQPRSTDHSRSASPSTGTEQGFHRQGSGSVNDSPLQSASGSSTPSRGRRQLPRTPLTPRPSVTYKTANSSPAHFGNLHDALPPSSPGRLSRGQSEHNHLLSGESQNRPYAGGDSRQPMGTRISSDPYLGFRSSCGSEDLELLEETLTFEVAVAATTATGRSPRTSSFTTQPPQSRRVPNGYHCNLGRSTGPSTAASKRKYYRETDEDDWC

[4] = test system: voltage-gated calcium channels, dorsal root ganglion (DRG) neurons; conditions: cited from earlier work
[5] = molecular target: OCT binding site, rat brain synaptosomes (Rattus norvegicus, UniProt Q02294); experiment: biochemical
Sequence of OCT binding site, rat brain synaptosomes (Q02294 whole entry, looked up): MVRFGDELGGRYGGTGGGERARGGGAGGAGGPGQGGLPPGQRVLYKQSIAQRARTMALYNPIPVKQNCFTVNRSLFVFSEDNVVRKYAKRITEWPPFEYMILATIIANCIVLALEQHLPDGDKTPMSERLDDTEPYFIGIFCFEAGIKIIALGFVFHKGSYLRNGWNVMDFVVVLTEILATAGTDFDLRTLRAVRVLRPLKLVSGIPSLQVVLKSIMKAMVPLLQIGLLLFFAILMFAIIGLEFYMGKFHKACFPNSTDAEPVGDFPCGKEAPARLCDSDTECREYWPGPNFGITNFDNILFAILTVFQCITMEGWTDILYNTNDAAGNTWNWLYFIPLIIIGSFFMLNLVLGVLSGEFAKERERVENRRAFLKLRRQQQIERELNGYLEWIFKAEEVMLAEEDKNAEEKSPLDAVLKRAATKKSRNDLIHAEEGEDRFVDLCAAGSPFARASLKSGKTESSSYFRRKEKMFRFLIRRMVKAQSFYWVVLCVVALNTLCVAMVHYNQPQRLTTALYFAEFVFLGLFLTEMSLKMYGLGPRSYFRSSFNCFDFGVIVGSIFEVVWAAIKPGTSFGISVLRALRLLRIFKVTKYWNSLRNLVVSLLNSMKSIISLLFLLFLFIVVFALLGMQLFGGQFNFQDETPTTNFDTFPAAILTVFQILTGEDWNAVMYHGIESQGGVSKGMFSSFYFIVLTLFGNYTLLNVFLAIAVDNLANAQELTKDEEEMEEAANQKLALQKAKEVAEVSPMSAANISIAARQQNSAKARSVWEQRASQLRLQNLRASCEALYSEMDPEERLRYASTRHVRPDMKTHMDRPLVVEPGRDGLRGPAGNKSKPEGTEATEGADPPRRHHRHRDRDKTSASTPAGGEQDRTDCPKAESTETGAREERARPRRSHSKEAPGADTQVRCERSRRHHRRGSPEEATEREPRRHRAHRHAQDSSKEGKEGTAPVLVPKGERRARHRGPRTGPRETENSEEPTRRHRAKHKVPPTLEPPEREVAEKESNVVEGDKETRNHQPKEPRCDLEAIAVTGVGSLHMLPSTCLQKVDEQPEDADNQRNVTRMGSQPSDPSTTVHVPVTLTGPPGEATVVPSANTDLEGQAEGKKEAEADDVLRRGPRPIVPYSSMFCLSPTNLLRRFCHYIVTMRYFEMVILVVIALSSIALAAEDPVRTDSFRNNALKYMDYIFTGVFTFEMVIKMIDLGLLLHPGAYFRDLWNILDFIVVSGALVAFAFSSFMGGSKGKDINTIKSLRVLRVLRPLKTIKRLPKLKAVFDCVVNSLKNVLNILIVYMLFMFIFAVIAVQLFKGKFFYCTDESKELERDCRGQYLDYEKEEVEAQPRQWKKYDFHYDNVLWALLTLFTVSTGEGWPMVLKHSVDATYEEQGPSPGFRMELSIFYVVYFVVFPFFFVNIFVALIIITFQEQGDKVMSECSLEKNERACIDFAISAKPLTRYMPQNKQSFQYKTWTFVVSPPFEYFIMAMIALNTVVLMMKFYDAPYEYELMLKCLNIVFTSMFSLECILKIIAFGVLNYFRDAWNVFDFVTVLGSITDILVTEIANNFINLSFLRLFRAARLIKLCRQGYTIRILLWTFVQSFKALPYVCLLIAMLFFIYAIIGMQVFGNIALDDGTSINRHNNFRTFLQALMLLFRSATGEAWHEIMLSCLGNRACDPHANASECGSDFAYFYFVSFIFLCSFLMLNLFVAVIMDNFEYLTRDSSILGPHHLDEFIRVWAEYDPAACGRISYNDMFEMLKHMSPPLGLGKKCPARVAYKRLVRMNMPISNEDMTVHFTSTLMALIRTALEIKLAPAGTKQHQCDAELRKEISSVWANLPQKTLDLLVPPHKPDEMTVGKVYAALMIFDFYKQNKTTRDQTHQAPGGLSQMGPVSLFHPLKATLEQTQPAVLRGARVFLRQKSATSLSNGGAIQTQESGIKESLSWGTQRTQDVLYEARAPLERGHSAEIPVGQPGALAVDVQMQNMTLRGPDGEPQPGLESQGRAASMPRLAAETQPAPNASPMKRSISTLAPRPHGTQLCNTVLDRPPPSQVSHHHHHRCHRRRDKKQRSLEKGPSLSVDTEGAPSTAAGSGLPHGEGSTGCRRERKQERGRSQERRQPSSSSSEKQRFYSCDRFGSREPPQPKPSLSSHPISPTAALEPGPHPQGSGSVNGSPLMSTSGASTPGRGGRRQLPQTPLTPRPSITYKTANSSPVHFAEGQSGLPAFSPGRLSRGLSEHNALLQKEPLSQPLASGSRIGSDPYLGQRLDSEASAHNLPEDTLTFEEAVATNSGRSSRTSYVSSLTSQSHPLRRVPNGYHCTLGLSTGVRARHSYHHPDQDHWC

[6] = molecular target: OCT receptor sites, PC-12 rat pheochromocytoma cells (Rattus norvegicus, UniProt Q02294); type: binding
Sequence of OCT receptor sites, PC-12 rat pheochromocytoma cells (Q02294 whole entry, looked up): as above

[7] = test system: OCT receptor sites, 293 human kidney cells; type: binding
[8] = test system: hippocampal CA1 region, rat four-vessel occlusion model; set-up: species or system rat (Fisher 344); conditions: in vivo
Male Swiss-Webster mice = conditions: mouse, in vivo; cited from earlier work

SMILES | Ki ([3]; pKi) [µM] | IC50 [5] [µM] | also measured
C[C@@H](O)[C@@H]1NC(=O)[C@H](Cc2ccc(O)cc2)NC(=O)[C@@H]2C[C@@H](O)CN2C(=O)[C@H](CC(N)=O)NC(=O)[C@@H]2CSSC[C@@H]3NC(=O)[C@H](CO)NC(=O)[C@H](CO)NC(=O)CNC(=O)[C@@H]4C[C@@H](O)CN4C(=O)[C@H](CO)NC(=O)[C@H](CCCCN)NC(=O)[C@@H](N)CSSC[C@H](NC(=O)[C@H](CSSC[C@@H](C(=O)N[C@@H](Cc4ccc(O)cc4)C(N)=O)NC(=O)[C@H](CCCNC(=N)N)NC(=O)[C@H](CCCCN)NC1=O)NC(=O)[C@H](CC(N)=O)NC(=O)[C@H](Cc1ccc(O)cc1)NC(=O)[C@H](CO)NC(=O)[C@H]([C@@H](C)O)NC(=O)[C@@H]1C[C@@H](O)CN1C(=O)[C@H](CO)NC3=O)C(=O)N[C@@H](CCCNC(=N)N)C(=O)N[C@@H](CO)C(=O)N2 [GVIA, HCysLysSer4HypGlySerSerCysSer4HypThrSerTyrAsnCysCysArgSerCysAsn4HypTyrLysArgCysTyr-NH2] | 0.0141 | 0.00048 | Mean score (S.E.M), CA1 damage 0-4 [1]: 1.3 (.33) and 1.2 (.39); Percent Damage [1]: 42% and 39%; reduction in damage [1]: > 50%; IC50 [2]: 0.2 µM; block of voltage-gated calcium channels [4]: block voltage-gated calcium channels
CSCC[C@@H]1NC(=O)CNC(=O)[C@H](CCCNC(=N)N)NC(=O)[C@H](CO)NC(=O)[C@@H]2CSSC[C@@H]3NC(=O)[C@H](CO)NC(=O)[C@H]([C@@H](C)O)NC(=O)[C@H](CSSC[C@H](N)C(=O)N[C@@H](CCCCN)C(=O)N[C@@H](CO)C(=O)N4C[C@H](O)C[C@H]4C(=O)NCC(=O)N[C@@H]([C@@H](C)O)C(=O)N4C[C@H](O)C[C@H]4C(=O)N2)NC(=O)[C@H](CSSC[C@@H](C(=O)N[C@@H](CCCNC(=N)N)C(=O)N[C@@H](CCCNC(=N)N)C(=O)N[C@@H](Cc2ccc(O)cc2)C(N)=O)NC(=O)[C@H](CCCCN)NC(=O)[C@H](CC(N)=O)NC(=O)[C@H](CO)NC(=O)[C@H](Cc2ccc(O)cc2)NC(=O)[C@H](CC(C)C)NC(=O)[C@H](CC(C)C)NC3=O)NC(=O)[C@H](CC(=O)O)NC(=O)[C@H](CCCNC(=N)N)NC1=O [GVIIA] (H-CKS[Hyp]GT[Hyp]CSRGMRDCCTSCLLYSNKCRRY-NH2; disulfide 1-16, 8-19, 15-26) | 0.00309 | 0.0229 | –
CSCC[C@@H]1NC(=O)[C@H](CC(C)C)NC(=O)[C@H](CCCNC(=N)N)NC(=O)[C@H](CO)NC(=O)[C@@H]2CSSC[C@@H]3NC(=O)[C@H](CO)NC(=O)CNC(=O)[C@H]([C@@H](C)O)NC(=O)[C@H](CSSC[C@H](N)C(=O)N[C@@H](CCCCN)C(=O)NCC(=O)N[C@@H](CCCCN)C(=O)NCC(=O)N[C@@H](C)C(=O)N[C@@H](CCCCN)C(=O)N2)NC(=O)[C@H](CSSC[C@@H](C(N)=O)NC(=O)[C@H](CCCCN)NC(=O)CNC(=O)[C@H](CO)NC(=O)[C@H](CCCNC(=N)N)NC3=O)NC(=O)[C@H](CC(=O)O)NC(=O)[C@H](Cc2ccc(O)cc2)NC1=O [MVIIA] | – | – | concentration of specific binding sites [6]: 56.6 and 79.1; IC50 [2]: 0.03 µM; concentration of specific binding sites [7]: < 4.6; Mean score (S.E.M), CA1 damage 0-4 [8]: 1.2 (0.36); effect of ICV administration in mice (Male Swiss-Webster mice): whole-body tremors
C[C@@H]1NC(=O)CNC(=O)[C@H](CCCCN)NC(=O)CNC(=O)[C@H](CCCCN)NC(=O)[C@@H](N)CSSC[C@@H]2NC(=O)[C@@H]3CSSC[C@@H](C(N)=O)NC(=O)[C@H](CCCCN)NC(=O)CNC(=O)[C@H](CCCNC(=N)N)NC(=O)[C@H](CC(N)=O)NC(=O)[C@H](CSSC[C@H](NC(=O)[C@H](CO)NC1=O)C(=O)N[C@@H](Cc1c[nH]cn1)C(=O)N[C@@H](CCCNC(=N)N)C(=O)N[C@@H]([C@@H](C)O)C(=O)N[C@@H](CO)C(=O)N[C@@H](Cc1ccc(O)cc1)C(=O)N[C@@H](CC(=O)O)C(=O)N3)NC(=O)[C@H](CO)NC(=O)CNC(=O)[C@H]([C@@H](C)O)NC2=O [MVIIB] (H-CKGKGASCHRTSYDCCTGSCNRGKC-NH2; disulfide 1-16, 8-20, 15-25) | 0.0219 | 0.00049 | –
CC(C)[C@@H]1NC(=O)[C@H](CCCNC(=N)N)NC(=O)[C@@H]2CSSC[C@@H]3NC(=O)[C@H](CO)NC(=O)[C@H](CO)NC(=O)[C@H](CSSC[C@H](N)C(=O)N[C@@H](CCCCN)C(=O)N4CCC[C@H]4C(=O)N4C[C@H](O)C[C@H]4C(=O)NCC(=O)N[C@@H](CO)C(=O)N4C[C@H](O)C[C@H]4C(=O)N2)NC(=O)[C@H](CSSC[C@@H](C(=O)NCC(N)=O)NC(=O)[C@H](CCCCN)NC(=O)[C@H](CCCCN)NC(=O)[C@H](CC(N)=O)NC(=O)[C@H](Cc2ccc(O)cc2)NC(=O)[C@H](CO)NC(=O)[C@H](CCCCN)NC3=O)NC(=O)[C@H](CC(N)=O)NC(=O)[C@H](Cc2ccc(O)cc2)NC(=O)[C@H](CO)NC(=O)[C@H](CO)NC1=O [RVIA] (H-CKP[Hyp]GS[Hyp]CRVSSYNCCSSCKSYNKKCG-NH2; disulfide 1-16, 8-19, 15-26) | 0.355 | 0.229 | Ki ([3]; Ki): 0.324 µM
CC[C@H](C)[C@@H]1NC(=O)[C@H](CO)NC(=O)[C@H]([C@@H](C)O)NC(=O)[C@H](C(C)C)NC(=O)CNC(=O)[C@@H]2CSSC[C@@H]3NC(=O)[C@H](CCCNC(=N)N)NC(=O)CNC(=O)[C@H](CSSC[C@H](N)C(=O)N[C@@H](CCCNC(=N)N)C(=O)N[C@@H](CO)C(=O)N[C@@H](CO)C(=O)NCC(=O)N[C@@H](CO)C(=O)N4C[C@H](O)C[C@H]4C(=O)N[C@@H](Cc4c[nH]cn4)C(=O)N2)NC(=O)[C@H](CSSC[C@@H](C(=O)N[C@H](C(N)=O)[C@@H](C)O)NC(=O)[C@H](CCCCN)NC(=O)CNC(=O)[C@H](CCCNC(=N)N)NC(=O)[C@H](Cc2ccc(O)cc2)NC3=O)NC1=O [SVIA, H-CysArgSerSerGlySer4HypHisCysGlyValThrSerIleCysCysGly ArgCysTyrArgGlyLysCysThr-NH2] (H-CRSSGS[Hyp]HCGVTSICCGRCYRGKCT-NH2; disulfide 1-16, 9-19, 15-24) | > 1000 | > 1000 | binding affinity/activity (in words) [3]: relatively low affinity binding
CC(C)C[C@@H]1NC(=O)[C@H](CCCCN)NC(=O)[C@@H](N)CSSC[C@@H]2NC(=O)[C@@H]3CSSC[C@@H](C(N)=O)NC(=O)[C@H](CCCCN)NC(=O)CNC(=O)[C@H](CO)NC(=O)[C@H](CCCNC(=N)N)NC(=O)CNC(=O)[C@H](CSSC[C@H](NC(=O)[C@H](CO)NC(=O)[C@H](CCC(N)=O)NC(=O)CNC(=O)[C@H](CCCCN)NC1=O)C(=O)N[C@@H](CCCNC(=N)N)C(=O)N[C@@H](CCCCN)C(=O)N[C@@H]([C@@H](C)O)C(=O)N[C@@H](CO)C(=O)N[C@@H](Cc1ccc(O)cc1)C(=O)N[C@@H](CC(=O)O)C(=O)N3)NC(=O)[C@H](CO)NC(=O)CNC(=O)[C@H](CO)NC2=O [SVIB] (H-CKLKGQSCRKTSYDCCSGSCGRSGKC-NH2; disulfide 1-16, 8-20, 15-26) | 0.00302 | 0.0057 | –
